Assay results taken from patent US20200060276A1, “THIAZOLE COMPOUND AND HERBICIDE” (OAT Agrio Co., Ltd., priority 2017, published 2020).

Tests used:
Type in all cases: in vivo
[1] = test system: Scirpus juncoides; experiment: Test for Herbicidal Effect in Flooding Treatment (#1), SCIJU; settings: flooding treatment at seeding, dose 2 kg/ha, visual observation on day 21
Outline: (§1)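 Flooded soil in cups was seeded 24 h after flooding, then treated with compound in acetone diluted with Tween 80-containing water, dropped onto the water surface at 2 kg/ha. After growth in a glasshouse, growth inhibition was scored visually on day 21 on a 0 (<10%) to 5 (≥90% or complete withering) scale.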

[2] = test system: Monochoria vaginalis; experiment: Test for Herbicidal Effect in Flooding Treatment (#1), MONVA; settings: flooding treatment at seeding, dose 2 kg/ha, visual observation on day 21
Outline: as §1

[3] = test system: Echinochloa crus-galli (L.) P. Beauv. var. formosensis Ohwi; experiment: Test for Herbicidal Effect in Flooding Treatment (#1), ECHDG; settings: flooding treatment at seeding, dose 2 kg/ha, visual observation on day 21
Outline: as §1

[4] = test system: Echinochloa crus-galli (L.) P. Beauv. var. formosensis Ohwi; experiment: Test for Herbicidal Effect in Flooding Treatment (#2), ECHDG at 2-2.5 leaf stage; settings: flooding treatment at 2-2.5 leaf stage, dose 0.2 kg/ha, visual observation on day 21
Outline: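 Scoring is a visual 0–5 scale of growth inhibition (0 below 10%, 5 at 90% or more or full withering), taken 21 days after treatment in a glasshouse. Dose was 0.2 kg/ha, applied as acetone/Tween 80 aqueous solution onto flooded soil once seedlings reached the 2–2.5 leaf stage.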

Question: Which “SCIJU #1 herbicidal effect (growth inhibition grade)” value [1] does the source give for `O=S(=O)(Cc1c(F)cccc1OCC(F)(F)F)c1ncc(Cl)s1` [Compound 1C-54] here?
Answer: Its value is 5 (Growth inhibition effect is equal to or greater than 90%, or complete withering is achieved).

Question: And the “MONVA #1 herbicidal effect (growth inhibition grade)” value [2]?
Answer: The value was 5 (Growth inhibition effect is equal to or greater than 90%, or complete withering is achieved).

Question: What about the “ECHDG #1 herbicidal effect (growth inhibition grade)” value [3] of the same molecule?
Answer: Its value is 5 (Growth inhibition effect is equal to or greater than 90%, or complete withering is achieved).

Question: What about the “ECHDG (2-2.5L) #2 herbicidal effect (growth inhibition grade)” value [4] of the same molecule?
Answer: The value was 5 (Growth inhibition effect is equal to or greater than 90%, or complete withering is achieved).

Question: How did the “SCIJU #1 herbicidal effect (growth inhibition grade)” value [1] turn out when `O=S(=O)(Cc1c(Cl)cccc1OCC(F)(F)F)c1ncc(Cl)s1` [Compound 1C-55] was run?
Answer: The value was 5 (Growth inhibition effect is equal to or greater than 90%, or complete withering is achieved).

Question: What about the “MONVA #1 herbicidal effect (growth inhibition grade)” value [2] of the same molecule?
Answer: The value was 5 (Growth inhibition effect is equal to or greater than 90%, or complete withering is achieved).

Question: What about the “ECHDG #1 herbicidal effect (growth inhibition grade)” value [3] of the same molecule?
Answer: Its value is 5 (Growth inhibition effect is equal to or greater than 90%, or complete withering is achieved).

Question: And the “ECHDG (2-2.5L) #2 herbicidal effect (growth inhibition grade)” value [4]?
Answer: The value was 5 (Growth inhibition effect is equal to or greater than 90%, or complete withering is achieved).

Question: How did the “SCIJU #1 herbicidal effect (growth inhibition grade)” value [1] turn out when `O=S(=O)(Cc1c(F)cccc1OCCC(F)(F)F)c1ncc(Cl)s1` [Compound 1C-58] was run?
Answer: The value was 5 (Growth inhibition effect is equal to or greater than 90%, or complete withering is achieved).

Question: What about the “MONVA #1 herbicidal effect (growth inhibition grade)” value [2] of the same molecule?
Answer: The value was 5 (Growth inhibition effect is equal to or greater than 90%, or complete withering is achieved).

Question: What about the “ECHDG #1 herbicidal effect (growth inhibition grade)” value [3] of the same molecule?
Answer: The value was 5 (Growth inhibition effect is equal to or greater than 90%, or complete withering is achieved).

Question: And the “ECHDG (2-2.5L) #2 herbicidal effect (growth inhibition grade)” value [4]?
Answer: Its value is 5 (Growth inhibition effect is equal to or greater than 90%, or complete withering is achieved).

Question: How did the “SCIJU #1 herbicidal effect (growth inhibition grade)” value [1] turn out when `O=S(=O)(Cc1c(Cl)cccc1OCCC(F)(F)F)c1ncc(Cl)s1` [Compound 1C-59] was run?
Answer: The value was 5 (Growth inhibition effect is equal to or greater than 90%, or complete withering is achieved).

Question: And the “MONVA #1 herbicidal effect (growth inhibition grade)” value [2]?
Answer: Its value is 5 (Growth inhibition effect is equal to or greater than 90%, or complete withering is achieved).

Question: What about the “ECHDG #1 herbicidal effect (growth inhibition grade)” value [3] of the same molecule?
Answer: The value was 5 (Growth inhibition effect is equal to or greater than 90%, or complete withering is achieved).

Question: And the “ECHDG (2-2.5L) #2 herbicidal effect (growth inhibition grade)” value [4]?
Answer: The value was 4 (Growth inhibition effect is equal to or greater than 70%, and less than 90%).

Question: With `O=S(=O)(Cc1c(F)cccc1OCC(F)(F)C(F)F)c1ncc(Cl)s1` [Compound 1C-60, 5-chloro-2-{[2-(2,2,3,3-tetrafluoropropoxy)-6-fluorophenyl][methanesulfonyl]}-1,3-thiazole] as the molecule, how does the “SCIJU #1 herbicidal effect (growth inhibition grade)” value [1] read?
Answer: The value was 5 (Growth inhibition effect is equal to or greater than 90%, or complete withering is achieved).

Question: What about the “MONVA #1 herbicidal effect (growth inhibition grade)” value [2] of the same molecule?
Answer: Its value is 5 (Growth inhibition effect is equal to or greater than 90%, or complete withering is achieved).

Question: What about the “ECHDG #1 herbicidal effect (growth inhibition grade)” value [3] of the same molecule?
Answer: The value was 5 (Growth inhibition effect is equal to or greater than 90%, or complete withering is achieved).

Question: What about the “ECHDG (2-2.5L) #2 herbicidal effect (growth inhibition grade)” value [4] of the same molecule?
Answer: Its value is 5 (Growth inhibition effect is equal to or greater than 90%, or complete withering is achieved).

Question: How did the “SCIJU #1 herbicidal effect (growth inhibition grade)” value [1] turn out when `O=S(=O)(Cc1c(F)cccc1OCC(F)(F)C(F)(F)F)c1ncc(Cl)s1` [Compound 1C-61] was run?
Answer: The value was 5 (Growth inhibition effect is equal to or greater than 90%, or complete withering is achieved).

Question: What about the “MONVA #1 herbicidal effect (growth inhibition grade)” value [2] of the same molecule?
Answer: The value was 5 (Growth inhibition effect is equal to or greater than 90%, or complete withering is achieved).

Question: What about the “ECHDG #1 herbicidal effect (growth inhibition grade)” value [3] of the same molecule?
Answer: Its value is 5 (Growth inhibition effect is equal to or greater than 90%, or complete withering is achieved).

Question: And the “ECHDG (2-2.5L) #2 herbicidal effect (growth inhibition grade)” value [4]?
Answer: Its value is 5 (Growth inhibition effect is equal to or greater than 90%, or complete withering is achieved).

Question: What does the source list for `O=S(=O)(Cc1c(Cl)cccc1OCC(F)(F)C(F)(F)F)c1ncc(Cl)s1` [Compound 1C-62]?
Answer: SCIJU #1 herbicidal effect (growth inhibition grade) [1]: 5 (Growth inhibition effect is equal to or greater than 90%, or complete withering is achieved); MONVA #1 herbicidal effect (growth inhibition grade) [2]: 5 (Growth inhibition effect is equal to or greater than 90%, or complete withering is achieved); ECHDG #1 herbicidal effect (growth inhibition grade) [3]: 5 (Growth inhibition effect is equal to or greater than 90%, or complete withering is achieved); ECHDG (2-2.5L) #2 herbicidal effect (growth inhibition grade) [4]: 4 (Growth inhibition effect is equal to or greater than 70%, and less than 90%)

Question: What does the source list for `O=S(=O)(Cc1c(F)cccc1OCCCC(F)(F)F)c1ncc(Cl)s1` [Compound 1C-63]?
Answer: SCIJU #1 herbicidal effect (growth inhibition grade) [1]: 5 (Growth inhibition effect is equal to or greater than 90%, or complete withering is achieved); MONVA #1 herbicidal effect (growth inhibition grade) [2]: 5 (Growth inhibition effect is equal to or greater than 90%, or complete withering is achieved); ECHDG #1 herbicidal effect (growth inhibition grade) [3]: 5 (Growth inhibition effect is equal to or greater than 90%, or complete withering is achieved); ECHDG (2-2.5L) #2 herbicidal effect (growth inhibition grade) [4]: 3 (Growth inhibition effect equal to or greater than 50%, and less than 70%)

Question: Which “SCIJU #1 herbicidal effect (growth inhibition grade)” value [1] does the source give for `COc1ccc(Cl)c(CS(=O)(=O)c2ncc(Cl)s2)c1Cl` [Compound 1C-73] here?
Answer: Its value is 5 (Growth inhibition effect is equal to or greater than 90%, or complete withering is achieved).

Question: And the “MONVA #1 herbicidal effect (growth inhibition grade)” value [2]?
Answer: Its value is 5 (Growth inhibition effect is equal to or greater than 90%, or complete withering is achieved).

Question: And the “ECHDG #1 herbicidal effect (growth inhibition grade)” value [3]?
Answer: Its value is 5 (Growth inhibition effect is equal to or greater than 90%, or complete withering is achieved).

Question: What about the “ECHDG (2-2.5L) #2 herbicidal effect (growth inhibition grade)” value [4] of the same molecule?
Answer: Its value is 5 (Growth inhibition effect is equal to or greater than 90%, or complete withering is achieved).

Question: Which results are given for `[2H]C([2H])(c1c(OCC)ccc(Cl)c1Cl)S(=O)(=O)c1ncc(Cl)s1` [Compound 1C-130, 5-chloro-2-{[2-ethoxy-5,6-dichlorophenyl][dideuterium(methanesulfonyl)]}-1,3-thiazole]?
Answer: SCIJU #1 herbicidal effect (growth inhibition grade) [1]: 5 (Growth inhibition effect is equal to or greater than 90%, or complete withering is achieved); MONVA #1 herbicidal effect (growth inhibition grade) [2]: 5 (Growth inhibition effect is equal to or greater than 90%, or complete withering is achieved); ECHDG #1 herbicidal effect (growth inhibition grade) [3]: 5 (Growth inhibition effect is equal to or greater than 90%, or complete withering is achieved); ECHDG (2-2.5L) #2 herbicidal effect (growth inhibition grade) [4]: 5 (Growth inhibition effect is equal to or greater than 90%, or complete withering is achieved)

Question: For `[2H]C([2H])(c1c(F)cccc1OC(F)F)S(=O)(=O)c1ncc(Cl)s1` [Compound 1C-131], which “SCIJU #1 herbicidal effect (growth inhibition grade)” value [1] is on record?
Answer: Its value is 5 (Growth inhibition effect is equal to or greater than 90%, or complete withering is achieved).

Question: What about the “MONVA #1 herbicidal effect (growth inhibition grade)” value [2] of the same molecule?
Answer: The value was 5 (Growth inhibition effect is equal to or greater than 90%, or complete withering is achieved).

Question: And the “ECHDG #1 herbicidal effect (growth inhibition grade)” value [3]?
Answer: Its value is 5 (Growth inhibition effect is equal to or greater than 90%, or complete withering is achieved).

Question: What about the “ECHDG (2-2.5L) #2 herbicidal effect (growth inhibition grade)” value [4] of the same molecule?
Answer: The value was 5 (Growth inhibition effect is equal to or greater than 90%, or complete withering is achieved).

Question: What does the source list for `[2H]C([2H])(c1c(Cl)cccc1OC(F)F)S(=O)(=O)c1ncc(Cl)s1` [Compound 1C-132]?
Answer: SCIJU #1 herbicidal effect (growth inhibition grade) [1]: 5 (Growth inhibition effect is equal to or greater than 90%, or complete withering is achieved); MONVA #1 herbicidal effect (growth inhibition grade) [2]: 5 (Growth inhibition effect is equal to or greater than 90%, or complete withering is achieved); ECHDG #1 herbicidal effect (growth inhibition grade) [3]: 5 (Growth inhibition effect is equal to or greater than 90%, or complete withering is achieved); ECHDG (2-2.5L) #2 herbicidal effect (growth inhibition grade) [4]: 5 (Growth inhibition effect is equal to or greater than 90%, or complete withering is achieved)

Question: What does the source list for `[2H]C([2H])(c1c(Cl)cccc1OC(F)(F)F)S(=O)(=O)c1ncc(Cl)s1` [Compound 1C-133]?
Answer: SCIJU #1 herbicidal effect (growth inhibition grade) [1]: 5 (Growth inhibition effect is equal to or greater than 90%, or complete withering is achieved); MONVA #1 herbicidal effect (growth inhibition grade) [2]: 5 (Growth inhibition effect is equal to or greater than 90%, or complete withering is achieved); ECHDG #1 herbicidal effect (growth inhibition grade) [3]: 5 (Growth inhibition effect is equal to or greater than 90%, or complete withering is achieved); ECHDG (2-2.5L) #2 herbicidal effect (growth inhibition grade) [4]: 5 (Growth inhibition effect is equal to or greater than 90%, or complete withering is achieved)

Question: With `[2H]C([2H])(c1ccccc1OCC(F)(F)F)S(=O)(=O)c1ncc(Cl)s1` [Compound 1C-134] as the molecule, how does the “SCIJU #1 herbicidal effect (growth inhibition grade)” value [1] read?
Answer: The value was 5 (Growth inhibition effect is equal to or greater than 90%, or complete withering is achieved).

Question: And the “MONVA #1 herbicidal effect (growth inhibition grade)” value [2]?
Answer: Its value is 5 (Growth inhibition effect is equal to or greater than 90%, or complete withering is achieved).

Question: What about the “ECHDG #1 herbicidal effect (growth inhibition grade)” value [3] of the same molecule?
Answer: Its value is 5 (Growth inhibition effect is equal to or greater than 90%, or complete withering is achieved).

Question: What about the “ECHDG (2-2.5L) #2 herbicidal effect (growth inhibition grade)” value [4] of the same molecule?
Answer: Its value is 5 (Growth inhibition effect is equal to or greater than 90%, or complete withering is achieved).

Question: For `[2H]C([2H])(c1c(Cl)cccc1OCC(F)(F)F)S(=O)(=O)c1ncc(Cl)s1` [Compound 1C-135], which “SCIJU #1 herbicidal effect (growth inhibition grade)” value [1] is on record?
Answer: Its value is 5 (Growth inhibition effect is equal to or greater than 90%, or complete withering is achieved).

Question: What about the “MONVA #1 herbicidal effect (growth inhibition grade)” value [2] of the same molecule?
Answer: The value was 5 (Growth inhibition effect is equal to or greater than 90%, or complete withering is achieved).

Question: And the “ECHDG #1 herbicidal effect (growth inhibition grade)” value [3]?
Answer: The value was 5 (Growth inhibition effect is equal to or greater than 90%, or complete withering is achieved).

Question: And the “ECHDG (2-2.5L) #2 herbicidal effect (growth inhibition grade)” value [4]?
Answer: The value was 5 (Growth inhibition effect is equal to or greater than 90%, or complete withering is achieved).
